17 compounds from PubChem BioAssay (NCI) can be followed below.

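Dose response: 5 concentrations. Exposure: 48 h. Format: 96-well plates. Endpoint: linear interpolation; highest concentration if not reached. The concentration for 50% growth inhibition is given as GI50. TGI: total growth inhibition.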

Holding throughout (assay): NCI tumour cell line growth inhibition, 48 h
Assay [1] deals with 786-0 renal.
The test system of assay [2] is EKVX NSCLC.
In assay [3] the test system is HOP-92 NSCLC.
Assay [4] concerns IGROV1 ovarian.
The subject of assay [5] is MCF7 breast.
Assay [6] has as its system NCI-H460 lung.
The test system of assay [7] is NCI-H522 lung.
For assay [8], the system named is U251 CNS.
Assay [9] relates to UACC-257 melanoma.
Assay [10] concerns UO-31 renal.

`O=C1CSC(=S)N1c1ccco1`: the TGI in assay [1] was 61 µM; in assay [2], above 100 µM; in assay [3], above 100 µM; in assay [4], above 100 µM; in assay [5], above 100 µM; in [6], above 100 µM. In addition, the values for the TGI in [7], in assay [8] and in [9] were 64.1 µM, above 100 µM and above 100 µM, respectively.
Regarding `CC(=O)O[C@H]([C@H](OC(C)=O)[C@H](C)OC(C)=O)[C@@H](/C=C/[C@@H]1CC=CC(=O)O1)OC(C)=O`, the GI50 in assay [1] was 90.1 µM; in [2], above 100 µM; in assay [3], 17.3 µM; in [5], 33.5 µM; in assay [6], 42 µM; in [7], 2.05 µM. In addition, the GI50 in assay [8] is above 100 µM; in assay [9], above 100 µM; in assay [10], 20.1 µM. The TGI was above 100 µM in [1]; above 100 µM in assay [2]; 61.7 µM in assay [3]; above 100 µM in assay [5]; above 100 µM in assay [6]; 4.73 µM in assay [7]. In addition, the TGI in assay [8] was above 100 µM; in [9], above 100 µM; in [10], 39.9 µM.
As to `CC1(C)S[C@@H]2[C@H](N3C(=O)c4ccccc4C3=O)CN2[C@H]1NC(=O)N[C@@H]1N2C[C@@H](N3C(=O)c4ccccc4C3=O)[C@H]2SC1(C)C`, the TGI in [1], in assay [3], in [4], in assay [5], in assay [6] and in [7] was above 100 µM throughout. The results for the TGI in assay [8] and in assay [10] were 58.5 µM and above 100 µM, respectively.
Consider `CSC(=NC#N)S/C=C/C(=O)c1ccccc1`, for which the GI50 in assay [1] was 33.7 µM; in assay [2] it was 86.4 µM; in assay [3], 32.4 µM; in assay [5], 52.3 µM; in [6] it was above 100 µM; in assay [7] it was 19.8 µM. Besides, the results for the GI50 in assay [8], in assay [9] and in [10] were 40.3 µM, 45.4 µM and 28.3 µM, respectively. In addition, the TGI is above 100 µM in assay [1]; above 100 µM in assay [2]; above 100 µM in [3]; above 100 µM in [5]; above 100 µM in assay [6]; 47.8 µM in assay [7]. Also, the TGI in assay [8], in [9] and in [10] was above 100 µM each time.
Consider `O=C1C(Cl)=C(Nc2ccc(Nc3ccccc3)c(NC3=C(Cl)C(=O)c4ccccc4C3=O)c2)C(=O)c2ccccc21`, for which the GI50 in assay [1] is 15.2 µM; in [2], 11.4 µM; in assay [3], 0.0439 µM; in [4], 15.9 µM; in [5], 5.31 µM; in assay [6], 3.35 µM. The GI50 is 2.32 µM in assay [8], 6.12 µM in [9] and 1.35 µM in assay [10]. Moreover, the TGI was found to be 46.5 µM in [1]; 96.4 µM in [2]; 3.27 µM in assay [3]; 69.1 µM in [4]; 44 µM in assay [5]; 13 µM in [6]. Moreover, the TGI in assay [8] came to 7.22 µM; in [9], 33.7 µM; in assay [10] it was 7.71 µM.
As for `CSc1c(C2=C(c3cn(C)c4ccccc34)C(=O)NC2=O)c2ccccc2n1C`, the GI50 in [1] is 1.19 µM; in assay [3], 0.599 µM; in [4] it was 1.39 µM; in assay [5], 0.805 µM; in assay [6], 0.832 µM; in assay [7], 0.367 µM. For the same compound, the values for the GI50 in assay [8], in assay [9] and in assay [10] were 1.23 µM, 1.41 µM and 0.703 µM, respectively. Also, the TGI is above 25 µM in [1]; above 25 µM in [3]; above 25 µM in assay [4]; above 25 µM in assay [5]; above 25 µM in assay [6]; 1.59 µM in [7]. The values for the TGI in assay [8], in [9] and in [10] were above 25 µM, above 25 µM and above 19.4 µM, respectively.
As for `CC/C=C\C[C@H](F)C/C=C1/C(=O)C=C[C@@H]1C/C=C\CCCC(=O)OC`, the GI50 is 2.56 µM in [1]; 5.17 µM in assay [2]; 1.94 µM in assay [4]; 1.02 µM in [5]; 1.44 µM in assay [6]; 1.32 µM in [7]. The GI50 in assay [8] is 1.86 µM; in assay [9] it was 2.75 µM; in assay [10], 2.13 µM. The TGI in [1] is 9.55 µM; in assay [2], 12 µM; in assay [4], 8.58 µM; in [5] it was 7.05 µM; in [6], 4.11 µM; in assay [7], 5.08 µM. Moreover, the results for the TGI in [8], in assay [9] and in [10] were 6.57 µM, 10.1 µM and 9.72 µM, respectively.
With `Cn1c(=O)c(Oc2ccc(F)cc2F)cc2cnc(NC(C)(C)CO)nc21`, the GI50 was above 25 µM in assay [1]; 7.44 µM in [3]; above 25 µM in assay [4]; above 25 µM in [5]; above 25 µM in assay [6]; above 25 µM in assay [7]. The GI50 in assay [8] is above 25 µM; in assay [9], above 25 µM; in assay [10], 6.65 µM. Further, the TGI in assay [1], in assay [3], in [4], in assay [5], in assay [6] and in assay [7] was above 25 µM each time. For the same compound, the TGI in [8] was above 25 µM; in assay [9], above 25 µM; in [10], above 13.4 µM.
`COc1cc(C2CC(c3cccc(Nc4ccnc5cc(Cl)ccc45)c3)=NN2c2ccc(Cl)cc2)cc(OC)c1OC` (configuration not stated): the GI50 in [1] is 2.05 µM; in assay [3], 1.85 µM; in assay [4], 3.89 µM; in [5], 2.31 µM; in assay [6], 0.772 µM; in [7], 1.57 µM. The GI50 in assay [9] is 3.45 µM; in assay [10], 0.489 µM. Moreover, the TGI in assay [1] is 26.2 µM; in assay [3] it was 74.8 µM; in assay [4] it was above 100 µM; in assay [5], above 100 µM; in assay [6], above 100 µM; in [7] it was 22.8 µM. Also, the TGI in assay [9] is above 100 µM; in [10], 15.3 µM.
On to `O=c1c2ccc(S(=O)(=O)c3ccc4c(=O)n5c6ccccc6nc5c5cccc3c45)c3cccc(c32)c2nc3ccccc3n12`, for which the TGI in assay [1] is above 100 µM; in [2] it was above 100 µM; in [4], 18.2 µM; in assay [5] it was above 100 µM; in assay [6] it was above 100 µM; in assay [7] it was above 100 µM. Also, the TGI in assay [8] was 35.5 µM; in assay [9] it was above 100 µM; in assay [10], above 100 µM.
`Nc1c(C(=O)Nc2ccccc2)sc2nc3c(cc12)CCCCC3`: the GI50 is 0.465 µM in assay [1]; 0.91 µM in [3]; 6.08 µM in assay [4]; 0.332 µM in assay [5]; 0.46 µM in [6]; 4.9 µM in assay [7]. In addition, the GI50 in assay [8] was 0.767 µM; in assay [9], 1.46 µM; in assay [10], 0.917 µM. Besides, the TGI in [1] is 11.8 µM; in [3], 18 µM; in assay [4] it was above 100 µM; in assay [5] it was above 100 µM; in assay [6], above 100 µM; in assay [7], above 100 µM. Also, the results for the TGI in assay [8], in assay [9] and in assay [10] were 19.5 µM, above 100 µM and above 100 µM, respectively.
With `Cc1c(-c2ccc(C3CCCCC3)cc2)nc2ccc(F)cc2c1C(=O)O`, the GI50 in assay [1] was 0.235 µM; in [3] it was 15 µM; in [4] it was 1 µM; in assay [5], 0.168 µM; in [6], 0.0461 µM; in [7], 0.766 µM. In addition, the GI50 in assay [8] is 0.0588 µM; in assay [9], 4.79 µM; in assay [10], 0.721 µM. Besides, the TGI is above 100 µM in [1]; 97.5 µM in [3]; above 100 µM in [4]; above 100 µM in [5]; above 100 µM in [6]; above 100 µM in assay [7]. The TGI in [8], in assay [9] and in assay [10] was above 100 µM each time.
`Oc1ccc(O)c(-c2cn3c(n2)SCC3)c1`: the GI50 was 2.32 µM in [1]; 19.5 µM in assay [2]; 39.9 µM in [4]; 26.8 µM in [5]; 60.9 µM in assay [6]; 4.93 µM in [7]. Also, the GI50 was 18.3 µM in [8], 25.5 µM in assay [9] and 20.7 µM in [10]. Further, the TGI was 6.59 µM in assay [1]; 37.3 µM in assay [2]; above 100 µM in assay [4]; above 100 µM in [5]; above 100 µM in assay [6]; above 100 µM in [7]. Besides, the TGI in assay [8] was 33.6 µM; in assay [9], 55.8 µM; in assay [10], above 100 µM.
For `C[C@@]1(C(=O)O)CCC[C@]2(C)C1CC[C@@]13C[C@@](O)(CC[C@]12O)[C@@]1(CO1)C3` (some centres not stated), the GI50 in assay [1], in [2], in assay [4], in [5], in assay [6] and in assay [7] was above 100 µM in each case. The GI50 in assay [8], in assay [9] and in [10] was above 100 µM in each case. The TGI in [1], in assay [2], in assay [4], in [5], in assay [6] and in assay [7] was above 100 µM throughout. The TGI in [8], in assay [9] and in assay [10] was above 100 µM in each case.
`COc1cc2c3cc1Oc1c(OC)c(OC)cc4c1C(=NCC4)Cc1ccc(cc1)Oc1cc(ccc1O)C[C@H]3N(C)CC2`: the TGI in [1] was 22.8 µM; in [2], above 100 µM; in assay [3] it was 29.1 µM; in assay [4] it was 94.4 µM; in assay [5] it was 70 µM; in assay [6], 39.9 µM. In addition, the results for the TGI in assay [7], in assay [8] and in assay [9] were 25.3 µM, 45.2 µM and 29.6 µM, respectively.
Turning to `Cc1nc2c(c(N3CCCc4ccccc43)n1)CCC2`, the GI50 in assay [1] was below 0.01 µM; in assay [2] it was below 0.01 µM; in assay [3], 2.42 µM; in assay [4] it was 0.0249 µM; in assay [5] it was 0.0228 µM; in assay [6], below 0.01 µM. For the same compound, the results for the GI50 in [8], in [9] and in [10] were below 0.01 µM, 12.9 µM and below 0.01 µM, respectively. For the same compound, the TGI in assay [1], in [2], in [3], in assay [4], in assay [5] and in assay [6] was above 100 µM throughout. Besides, the TGI in [8], in assay [9] and in [10] was above 100 µM each time.
In the case of `COc1cccc(/C=C/C(=O)c2ccc(SC)cc2)c1OC`, the GI50 in [1] was 14.2 µM; in assay [2], 18.8 µM; in assay [3] it was 21.6 µM; in assay [5] it was 11 µM; in assay [6], 17.9 µM; in [7], 19.2 µM. Further, the GI50 in assay [8] was 10.4 µM; in [9] it was 15.7 µM; in [10] it was 17 µM. Also, the TGI worked out at 28.2 µM in [1]; 35.6 µM in [2]; 54.1 µM in assay [3]; 35.8 µM in assay [5]; 36.2 µM in assay [6]; 38.9 µM in assay [7]. For the same compound, the TGI in assay [8] was 24 µM; in [9], 29.3 µM; in assay [10] it was 31.1 µM.
